Patent US3984410A, “Isourea acetylphosphate insecticides” (priority 1975, dated 1976)
Converted amounts (≈) assume the structure as drawn. Like-named read-outs stand apart in the source and are kept apart here.

Tests used:
Assay type in all cases: in vivo
[1] = system: German Cockroach [Blattella germanica (Linne)]; test: German Cockroach spray
Experimental: (§1) Test compounds are diluted in a 50--50 acetone-water solution. Two cc of the solutions are sprayed through a DeVilbiss type EGA hand spray gun into circular cardboard cages containing 10 l-month-old German cockroach nymphs. The test cages are covered on the bottom with cellophane and the top with tulle netting. Percent mortality is recorded 7 days later. Test concentrations range from 0.1% down to that at which approximately 50% mortality occurs.

[2] = system: Cabbage Looper [Trichoplusia ni (Hubner)]; test: Cabbage Looper on dipped squash cotyledons; conditions: second-instar larvae, cotyledon dip; 48 hours plus 5 days
Experimental: (§2) Test compounds are diluted in a 50--50 acetone-water solution. Cotyledons of hyzini squash (Calabacita abobrinha), approximately 1 × 1.5 inches, are immersed in the test solutions for 2-3 seconds and placed on a wire screen to dry. The dried leaves are placed in petri dishes containing a moistened piece of filter paper and infested with five second-instar cabbage looper larvae. Mortality of the larvae is recorded 48 hours later, and a piece of synthetic media is added to dishes containing survivors. These are then held for 5 additional days to observe for any delayed effects of the test chemicals. Test concentrations range from 0.1% down to that at which approximately 50% mortality occurs.

[3] = system: housefly (Musca domestica L.); test: Housefly mortality, residue on aluminum dishes; conditions: 25 3-day old female houseflies; mortality after 48 hours
Experimental: Test compounds are diluted in acetone and aliquots are pipetted onto the bottom of 55 × 15 mm aluminum dishes. To insure even spreading of the chemical on the bottom of the dishes, 1 ml of acetone containing 0.02% peanut oil is also added to each dish. After all solvents have evaporated the dishes are placed in circular cardboard cages containing 25 3-day old female houseflies. The cages are covered on the bottom with cellophane and the top with tulle netting, and each contains a sugar-water saturated cotton plug for maintenance of the flies. Mortality is recorded after 48 hours. Test levels range from 100 μg/25 F. houseflies down to that at which approximately 50% mortality occurs.

[4] = system: Black Bean Aphid [Aphis fabae (Scop.)]; test: Systemic Assay on Black Bean Aphid; conditions: 168 h, read-out: Insecticide Activity - Approximate LD50, BAS (Black Bean Aphid - systemic)
Experimental: Test chemicals are diluted in acetone and aliquots are thoroughly mixed into 500 grams of dry, sandy loam soil. The treated soil is placed in a pint ice cream carton and a nasturtium plant (Tropaeolum sp.) approximately 5 cm tall is transplanted into each carton. The plants are then infested with approximately 25 black bean aphids of mixed ages and placed in the greenhouse. Seven days later mortality is recorded. Test concentrations range from 10 PPM down to that at which approximately 50% mortality occurs.

[5] = system: Lygus Bug [Lygus hesperus (Knight)]; test: Lygus Bug spray; conditions: spray on adult bugs; mortality after 48 hours
Experimental: as §1, with “are” for “are diluted”, “Devilbiss” for “DeVilbiss”, “one string bean pod and ten adult lygus bugs.” for “10 l-month-old German cockroach nymphs.”, “48 hours” for “7 days”, “0.05%” for “0.1%”

[6] = system: Tobacco Budworm [Heliothis virescens (F.)]; test: Tobacco Budworm on dipped Romaine lettuce leaves; conditions: larvae, Romaine lettuce leaf dip; 48 hours plus 5 days
Experimental: as §2
The procedure is the same as that used for the cabbage looper, except that sections of Romaine lettuce (Latica sativa) leaves were used instead of cotyledons of hyzini squash.

[7] = system: Black Bean Aphid [Aphis fabae (Scop.)]; test: Direct Spray Assay on Black Bean Aphid; conditions: direct spray on nasturtium plants; mortality after 7 days
Experimental: Nasturtium plants (Tropaeolum sp.), approximately 5 cm tall, are transplanted into sandy loam soil in 3-inch clay pots and infested with 25-50 black bean aphids of mixed ages. Twenty-four hours later they are sprayed, to the point of runoff, with 50--50 acetone-water solutions of the test chemicals. Treated plants are held in the greenhouse and mortality is recorded after 7 days. Test concentrations range from 0.05% down to that at which 50% mortality occurs.

[8] = system: Green Peach Aphid [Myzus persicae (Sulzer)]; test: Green Peach Aphid spray on radish plants; conditions: sprayed to runoff on radish plants; mortality after 48 hours
Experimental: Radish plants (Rhaphanus sativus), approximately 2 cm tall, are transplanted into sandy loam soil in 3-inch clay pots and infested with 25-50 green peach aphids of mixed ages. Twenty-four hours later they are sprayed, to the point of runoff, with 50--50 acetone-water solutions of the test chemicals. Treated plants are held in the greenhouse and mortality is recorded after 48 hours. Test concentrations range from 0.05% down to that at which 50% mortality occurs.

[9] = system: Southern House Mosquito [Culex pipiens quinquefasciatus (Say)]; test: Southern House Mosquito larvae in aqueous solution; conditions: 48 h, read-out: Insecticide Activity - Approximate LD50, MOS (Southern House Mosquito)
Experimental: Insecticidal activity is determined using third-instar larvae of the mosquito (Culex pipiens quinquefasciatus). Ten larvae are placed in a 6-ounce, number 67 Dixie wax paper cup containing 100 ml of an aqueous solution of the test chemical. The treated larvae are stored at 70°F, and 48 hours later the mortality is recorded. Test concentrations range from 0.5 PPM down to that at which approximately 50% mortality occurs.

[10] = spray on 1-month-old nymphs, mortality after 7 days
[11] = systemic, chemical in soil, mortality after 7 days

| Structure (SMILES) | Insecticide Activity - Approximate LD50, GR (German Cockroach) ([1]; 168 h) | Insecticide Activity - Approximate LD50, CL (Cabbage Looper) [2] | Insecticide Activity - Approximate LD50, HF (Housefly) [3] [μg/25 F.] | LC50 ([4]; soil) [µg/mL] | Insecticide Activity - Approximate LD50, LB (Lygus Bug) [5] | Insecticide Activity - Approximate LD50, TBW (Tobacco Budworm) [6] | Insecticide Activity - Approximate LD50, BA (Black Bean Aphid - direct spray) [7] | Insecticide Activity - Approximate LD50, GPA (Green Peach Aphid) [8] | LC50 [9] [µg/mL] | Insecticide Activity - Approximate LD50, GR (German Cockroach) [1, 10] | LC50 [4, 11] [µg/mL] |
| --- | --- | --- | --- | --- | --- | --- | --- | --- | --- | --- | --- |
| CCOP(=S)(OCC)SCC(=O)N=C(OC)N(C)c1ccccc1 [Compound 8] | > .05% | > .1% | 30 | > 1 | > .05% | .1% | .0008% | .03% | > 1 | – | – |
| C=CCN(C(=NC(=O)CSP(=S)(OC)OC)OC)c1ccccc1 [Compound 11] | – | > .1% | 30 | – | > .05% | > .1% | .005% | .03% | > 1 | > .1% | > 10 |
| CCOP(=S)(OCC)SCC(=O)N=C(OC)N(C)Cc1ccccc1 [Compound 12] | – | > .1% | 24 | – | > .05% | > .1% | > .05% | – | > 1 | > .1% | – |
| CCOP(=S)(OCC)SCC(=O)N=C(OC)N1CCCCC1 [Compound 3] | – | > .1% | 25 | – | .05% | > .1% | .001% | .008% | 1 (≈ 2.71 µM) | > .1% | > 10 |
| CCN(C(=NC(=O)CSP(=S)(OC)OC)OC)c1cccc(C)c1 [Compound 19] | – | > .1% | 62 | – | > .05% | > .1% | .002% | .03% | > 1 | > .1% | > 10 |
| CCOP(=S)(OCC)SCC(=O)N=C(OC)N(CC)CC [Compound 5] | – | > .1% | 23 | – | > .05% | > .1% | .001% | .03% | > 1 | .1% | > 10 |
| CCOP(=S)(OCC)SCC(=O)N=C(OC)N(CC)c1ccccc1 [Compound 15] | – | .1% | 30 | – | > .05% | > .1% | .005% | .03% | > 1 | > .1% | 2 (≈ 4.94 µM) |
| CCOP(=S)(OCC)SCC(=O)N=C(OC)N1CCOCC1 [Compound 4, N-morpholino-N'-(O,O-diethylphosphorodithioylacetyl)-O-methylisourea] | – | – | 27 | – | .05% | – | .0008% | > .05% | > 1 | > .1% | 5 (≈ 13.5 µM) |
| COC(=NC(=O)CSP(=S)(OC)OC)N(C)Cc1ccccc1 [Compound 13] | – | > .1% | 30 | – | > .05% | > .1% | > .05% | – | > 1 | > .1% | – |
| C=CCN(CC=C)C(=NC(=O)CSP(=S)(OCC)OCC)OC [Compound 1, N,N-Diallyl-N'-(O,O-diethylphosphorodithioylacetyl)-O-methylisourea] | – | – | 10 | – | .05% | – | .003% | > .05% | 1 (≈ 2.63 µM) | > .1% | 3 (≈ 7.88 µM) |
| CCN(C(=NC(=O)CSP(=S)(OC)OC)OC)c1ccccc1 [Compound 16] | – | .1% | 25 | – | > .05% | > .1% | .03% | – | > 1 | > .1% | > 10 |
| C=CCN(C(=NC(=O)CSP(=S)(OCC)OCC)OC)c1ccccc1 [Compound 10] | – | > .1% | 10 | – | .05% | > .1% | > .05% | – | > 1 | > .1% | – |
| CCN(CC)C(=NC(=O)CSP(=S)(OC)OC)OC [Compound 6] | – | > .1% | 24 | – | > .05% | > .1% | .05% | > .05% | > 1 | > .1% | – |
| C=CCN(CC=C)C(=NC(=O)CSP(=S)(OC)OC)OC [Compound 2] | – | – | 8 | – | > .05% | – | .008% | – | > 1 | > .1% | 5 (≈ 14.2 µM) |
